One data set has as its system Erythrocyte. As to the kind of experiment: Hemolytic activity against human erythrocytes at 25 uM measured after 48 hrs. It is filed as ADME, cell-based.
Data set [1] is described as follows: Inhibition of recombinant Plasmodium falciparum M1 aminopeptidase using Ala-AMC as substrate pretreated for 30 mins followed by substrate addition by fluorescence assay.
Data set [2] concerns Plasmodium falciparum. The experiment in a line: Antimalarial activity against asynchronized chloroquine-resistant Plasmodium falciparum FcB1/Columbia assessed as reduction in [3H]-hypoxanthine incorporation by measuring parasite growth at 50 uM pretreated for 24 hrs followed by [3H]-hypoxanthine addition after 24 hrs by microbeta scintillation counting analysis relative to control. The class given is functional. The arrangement: scale not given: the % may be the effect or the level left.

Data set [3] has as its system Plasmodium falciparum. The experiment in a line: Inhibition of recombinant Plasmodium falciparum M1 aminopeptidase assessed as residual activity at 20 uM using Ala-AMC as substrate pretreated for 30 mins followed by substrate addition by fluorescence assay relative to control.
Data set [4] has as its system Plasmodium falciparum. As to the kind of experiment: Antimalarial activity against asynchronized chloroquine-resistant Plasmodium falciparum FcB1/Columbia assessed as reduction in [3H]-hypoxanthine incorporation by measuring parasite growth at 5 uM pretreated for 24 hrs followed by [3H]-hypoxanthine addition after 24 hrs by microbeta scintillation counting analysis relative to control. It is filed as functional. More on the design: scale not given: the % may be the effect or the level left.

For the next data set, the target named is T1, Aminopeptidase N (Sus scrofa, UniProt P15145).
T1 sequence (P15145 whole entry): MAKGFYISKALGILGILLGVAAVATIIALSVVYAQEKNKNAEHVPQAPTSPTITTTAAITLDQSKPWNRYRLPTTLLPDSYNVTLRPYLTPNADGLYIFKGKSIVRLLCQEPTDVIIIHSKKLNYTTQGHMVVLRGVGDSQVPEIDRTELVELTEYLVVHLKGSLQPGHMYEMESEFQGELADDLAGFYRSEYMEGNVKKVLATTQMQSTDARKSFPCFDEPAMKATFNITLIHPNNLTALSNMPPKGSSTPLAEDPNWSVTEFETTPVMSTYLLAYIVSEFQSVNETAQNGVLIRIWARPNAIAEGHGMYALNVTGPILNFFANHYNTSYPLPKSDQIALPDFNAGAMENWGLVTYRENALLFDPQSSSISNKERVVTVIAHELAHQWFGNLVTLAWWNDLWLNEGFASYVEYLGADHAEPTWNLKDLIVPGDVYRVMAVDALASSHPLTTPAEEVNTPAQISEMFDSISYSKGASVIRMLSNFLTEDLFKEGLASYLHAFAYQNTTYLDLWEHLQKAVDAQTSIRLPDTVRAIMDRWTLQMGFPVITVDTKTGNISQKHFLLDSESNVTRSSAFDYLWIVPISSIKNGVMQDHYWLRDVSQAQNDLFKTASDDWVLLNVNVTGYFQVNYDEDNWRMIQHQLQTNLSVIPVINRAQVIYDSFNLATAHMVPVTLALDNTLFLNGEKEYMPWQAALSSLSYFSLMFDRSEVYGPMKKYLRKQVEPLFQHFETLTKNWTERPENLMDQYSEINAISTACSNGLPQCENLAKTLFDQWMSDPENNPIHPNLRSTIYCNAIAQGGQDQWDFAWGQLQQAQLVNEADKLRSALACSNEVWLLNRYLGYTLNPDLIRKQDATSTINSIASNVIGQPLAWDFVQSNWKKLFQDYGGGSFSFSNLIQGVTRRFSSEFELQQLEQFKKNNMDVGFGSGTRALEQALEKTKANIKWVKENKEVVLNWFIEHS
As to the kind of experiment: Inhibition of porcine kidney cortex aminopeptidase N using Leu-p-nitroanilide as substrate pretreated for 30 mins followed by substrate addition […].

Data set [5] is described as follows: Selectivity index, ratio of Ki for recombinant Plasmodium falciparum M1 aminopeptidase to Ki for porcine kidney cortex aminopeptidase N.
In data set [6] the test system is Plasmodium falciparum. The experiment in a line: Antimalarial activity against synchronized ring stage of […] Plasmodium falciparum 3D7 infected in human erythrocytes after 48 hrs by Giemsa staining based microscopic analysis. The class given is functional, cell-based. To be noted: 3D7, 48 h.
Data set [7] has as its system Plasmodium falciparum. As to the kind of experiment: Antimalarial activity against synchronized ring stage of […] Plasmodium falciparum 3D7 infected in human erythrocytes assessed as parasite growth at 25 uM after 48 hrs by Giemsa staining based microscopic analysis. The class given is functional, cell-based.
For data set [8], the system named is Plasmodium falciparum. The experiment in a line: Antimalarial activity against asynchronized chloroquine-resistant Plasmodium falciparum FcB1/Columbia assessed as reduction in [3H]-hypoxanthine incorporation pretreated for 24 hrs followed by [3H]-hypoxanthine addition after 24 hrs by microbeta scintillation counting analysis. It is filed as functional.
Data set [9] has as its system Plasmodium falciparum. As to the kind of experiment: Antimalarial activity against synchronized ring stage of […] Plasmodium falciparum 3D7 infected in human erythrocytes assessed as parasite growth at 25 uM after 72 hrs by YOYO-1 staining based flow cytometric analysis relative to control. The class given is functional. (In flow cytometry, cells or beads pass a laser one at a time.)

A short description of data set [10]: Inhibition of Plasmodium falciparum M1 aminopeptidase using Ala-AMC as substrate by spectrofluorimetric assay.
The target in data set [11] is T2, Aminopeptidase N (Sus scrofa) (UniProt P15145).
T2 sequence (whole entry): T1 sequence (P15145 whole entry)
The experiment in a line: Inhibition of porcine kidney cortex aminopeptidase N up to 100 uM using Leu-p-nitroanilide as substrate […].

The subject of a further data set is HUVEC. The experiment in a line: Cytotoxicity against HUVEC assessed as reduction in cell viability up to 200 uM by MTT assay. The class given is cell-based. To be noted: human.
The test system of data set [12] is Plasmodium falciparum. As to the kind of experiment: Inhibition of Plasmodium falciparum M1 aminopeptidase at 200 uM using Ala-AMC as substrate by spectrofluorimetric assay.
Data set [13] has as its system Plasmodium falciparum. As to the kind of experiment: Inhibition of Plasmodium falciparum M1 aminopeptidase at 20 uM using Arg-AMC as substrate measured after 5 mins by fluorescence assay relative to control.
Data set [14] deals with Plasmodium falciparum. As to the kind of experiment: Antimalarial activity against synchronized ring stage of […] Plasmodium falciparum 3D7 infected in human erythrocytes assessed as parasite growth at 1 uM after 72 hrs by YOYO-1 staining based flow cytometric analysis relative to control. The class given is functional.

Active and inactive are the calls of the source. Unless noted, no cut-off for these calls is given here.

What is called Ki is the dissociation constant of the complex between target and ligand, obtained from inhibition or displacement. In general, IC50 refers to the concentration that gives 50% inhibition. `O=C(CN[C@@H](Cc1c[nH]c2ccccc12)C(=O)O)NC1CCCCC1`: the Activity result is “Non-Toxic” in the data set on Erythrocyte; 31 - 39.5% in the data set on Plasmodium falciparum [2]; 29% with Plasmodium falciparum [3]; 83 - 92.5% with Plasmodium falciparum [4]; 43% with Plasmodium falciparum [9]. In addition, the Ki in data set [1] was 4.3 µM; at Aminopeptidase N it was 24 µM. Moreover, in data set [5], the Ratio Ki worked out at 5.6. The figures for the half-maximal inhibitory concentration (IC50) with Plasmodium falciparum [6] and in the data set on Plasmodium falciparum [8] were 25 µM and 37 µM, respectively. For the same compound, the result in the data set with Plasmodium falciparum [7] was Active.

As usually defined, the inhibition is the change of the read-out against control, counted positive when it falls. For `CC(C)C[C@@H](C(=O)O)N(C(=O)[C@@H](N)Cc1ccccc1)C(C(=O)NCc1ccccc1)c1ccco1` (stereo partly specified), the Activity result with Erythrocyte is “Non-Toxic”; with Plasmodium falciparum [2], 2.5 - 4.5%; in the data set on Plasmodium falciparum [3], 48%; with Plasmodium falciparum [4], 83.5 - 93.5%; in the data set on HUVEC, “Non-Toxic”; in the data set on Plasmodium falciparum [9] it was 54%. Moreover, the Ki in [1] came to 0.4 µM. Further, the IC50 stood at 82 µM in data set [10], 18 µM in the data set with Plasmodium falciparum [6] and 16 µM with Plasmodium falciparum [8]. Besides, the Ratio Ki in [5] is > 250. Moreover, the inhibition entry in data set [11] was “inactive”. In the data set with Plasmodium falciparum [7], the outcome was Active.

Regarding `O=C(CN[C@@H](Cc1ccccc1)C(=O)O)NC1CCCCC1`, the Activity entry in the data set with Erythrocyte was “Non-Toxic”; with Plasmodium falciparum [2] it was 21.5 - 56%; in the data set on Plasmodium falciparum [3], 48%; with Plasmodium falciparum [4], 84.5 - 99%; in the data set on Plasmodium falciparum [9] it was 53%. For the same compound, the Ki in [1] is 6.1 µM; at Aminopeptidase N, 21 µM. Also, the Ratio Ki in data set [5] was determined as 3.4. In addition, the values for the IC50 in the data set on Plasmodium falciparum [6] and in the data set with Plasmodium falciparum [8] were 37 µM and 29 µM, respectively. Further, the result with Plasmodium falciparum [7] was Active.

Consider `CC(C)C[C@@H](C(=O)O)N(C(=O)[C@@H](N)Cc1ccccc1)C(C(=O)NC(C)(C)C)c1ccccc1` (stereo partly specified), for which the Activity entry in the data set on Erythrocyte was “Non-Toxic”; with Plasmodium falciparum [2], 2 - 2.5%; in the data set with Plasmodium falciparum [3] it was 69%; with Plasmodium falciparum [4], 49 - 100%; with Plasmodium falciparum [9] it was 30%. In the data set with Plasmodium falciparum [7], the result was Active. Further, the inhibition entry in the data set with Plasmodium falciparum [12] is “inactive”.

Regarding `CC(C)C[C@H](NC(=O)[C@@H](O)[C@H](N)Cc1ccccc1)C(=O)O` [UBENIMEX], the Activity result in the data set on Erythrocyte is “Non-Toxic”; in the data set with Plasmodium falciparum [3], 1.2%; with Plasmodium falciparum [9], 36%. In data set [1], the Ki was < 0.16 µM. The values for the IC50 (in [10]; in the data set with Plasmodium falciparum [6]; with Plasmodium falciparum [8]) were < 0.31 µM, 21 µM and 3.3 µM, respectively. The same compound gave an inhibition with Plasmodium falciparum [13] of 50%.

Take `CCN(CC)CCCC(C)Nc1ccnc2cc(Cl)ccc12` (stereo unspecified) [CHLOROQUINE]: in the data set on Plasmodium falciparum [14], the Activity worked out at 25.9%.

For the origin of these results see ChEMBL document CHEMBL4043116, “KBE009: An antimalarial bestatin-like inhibitor of the Plasmodium falciparum M1 aminopeptidase discovered in an Ugi multicomponent reaction-derived peptidomimetic library” (Bioorg Med Chem, 2017).
